Measurements as given in patent publication US20240034761A1, “REGENERATION OF MAMMALIAN TISSUES USING SYNTHETIC IMMODULINS” (priority 2022, published 2024).
Marks after values point to notes of the source that are not given here. Square brackets hold non-standard residues; d marks the D form. Ends that are not written are not given here. Peptide text beside a SMILES is read from it.

What was measured:
[1] = system: THP1-Dual monocyte reporter cell line; assay: Adjuvant effect of helper molecules on immX3 peptide potency in THP1-Dual assay; assay type: cell-based, human
Method: (§1) Mammalian cell differentiation assays employed the THP1-Dual monocyte reporter cell line (Invivogen Inc, San Diego, CA) seeded at 2×10e5 cells per well in 96-well plates and cultured at 37 degrees C. in RPMI-1640 growth medium plus 10% fetal bovine serum and 1% penicillin/streptomycin. Cells were subsequently treated for 24 hours with 100 ng/ml Phorbol 12-myristate 13-acetate (PMA protocol; Cayman Chemical Company, Ann Arbor, MI). Peptide (0.33 uM or 0.66 uM, as indicated) was then added, and incubation continued for an additional 24 hours. Culture supernatants were assayed for CCL22. Plates with adherent cells were washed with PBS and assayed for immunoreactivity of surface markers such as CD169, Clec9a or Clec12a using fuorescent tag- or biotin-labeled anti-human antibodies purchased from Miltenyi Biotec (Auburn, CA) and the secondary detection reagent recommended by the manufacturer.
The THP1-Dual cell differentiation assay was carried out as described above in Example 2, using immX3 peptide (330 nM) in all samples plus the indicated helper or inhibitor molecule. Molecules were purched from Cayman Chemical Company (Ann Arbor, MI) or Sigma Chemical Company (St. Louis, MO). AU=arbitrary ELISA units. **p<0.01.

[2] = PIP-binding membrane assay (Membrane Lipid Strips); design: key: —: −−− no binding; +++ strong binding; conditions: 400 ng peptide
Method: N-terminally biotinylated versions of the peptides listed below were used in various assays listed in the examples. For the two types of phosphatidylinositon phosphate (PIP)-binding assays, imm1-imm6 peptides were used.
In the PIP-binding membrane assay, 400 ng of each peptide was bound to Membrane Lipid Strips (Catalog # P-6002, Echelon Biosciences, Salt Lake City, UT) and developed according to the manufacturer's instructions. Binding to PIPs was as follows (−−− no binding; +++ strong binding): […]

[3] = system: THP1-Dual monocyte reporter cell line; assay: THP1-Dual myeloid cell differentiation assay (PMA protocol); assay type: cell-based, human; conditions: PMA 24 h, then peptide 0.33 uM or 0.66 uM 24 h; for CD169+ (AU): relative to immX3AVD = 100; for CCL22: culture supernatant
Method: as §1

[4] = system: C2C12 myoblastic cell line; assay: C2C12 myoblast differentiation, creatine kinase; assay type: cell-based; conditions: 0.66 uM peptide, 96 hours; helper none; relative to immX3AVD = 100
Method: Differentiation assays employed the C2C12 myoblastic cell line (ATCC, Manassas, VA) seeded at 2×10e5 cells per well in 96-well plates and cultured at 37 degrees C. in DMEM growth medium plus 10% fetal bovine serum and 1% penicillin/streptomycin. For differentiation, 10% fetal bovine serum was replaced with 2% horse serum. 0.66 uM peptide was then added, and incubation continued for an additional 96 hours. Plates with adherent cells were washed with PBS, lysed with Lytic-M buffer (Sigma Chemical Company, St. Louis, MO) and the lysates were assayed for creatine kinase using a kit purchased from Bioassay Systems (Cat. #ECPK-100, Hayward, CA). Effects were visually confirmed with microscopy tracking myotube formation. Results were expressed as units per milliliter relative to the control immX3AVD peptide, and p values were also calculated and shown relative to control immX3AVD peptide (** p<0.05 versus immX3AVD control; avg±SD).

[5] = immX3 peptide 330 nM plus helper at 15 uM
[6] = immX3 peptide 330 nM plus helper at 2 uM
[7] = immX3 peptide 330 nM plus helper at 1 mM
[8] = immX3 peptide 330 nM plus helper at 0.1 ug/ml
[9] = immX3 peptide 330 nM plus helper at 1 ug/ml

Nc1nc2c(ncn2[C@@H]2O[C@@H]3COP(=O)(O)O[C@H]4[C@@H](O)[C@H](n5cnc6c(N)ncnc65)O[C@@H]4COP(=O)(O)O[C@@H]2[C@@H]3O)c(=O)[nH]1 [2′3′-cGAMP]
CD169 (AU) [1, 5]: 168.5 ± 10.9** AU

Sc1ncnc2nc[nH]c12 [6-mercaptopurine]
CD169 (AU) [1, 6]: 104.9 ± 4.0 AU

C=C(c1ccc(C(=O)O)cc1)c1cc2c(cc1C)C(C)(C)CCC2(C)C [Bexarotene]
CD169 (AU) [1, 6]: 96.9 ± 6.8 AU

Oc1ccc(C(c2c[nH]c3ccccc23)c2c[nH]c3ccccc23)cc1 [C-DIM8]
CD169 (AU) [1, 6]: 91.0 ± 24.8 AU

Clc1ccc(C(c2c[nH]c3ccccc23)c2c[nH]c3ccccc23)cc1 [C-DIM12]
CD169 (AU) [1, 6]: 119.0 ± 3.7** AU

C=C1/C(=C\C=C2/CCC[C@]3(C)[C@@H]([C@H](C)CCCC(C)(C)O)CC[C@@H]23)C[C@@H](O)C[C@@H]1O [Calcitriol]
CD169 (AU) [1, 6]: 102.0 ± 11.3 AU

O=C1CCc2cc(OCCCCc3nnnn3C3CCCCC3)ccc2N1 [Cilostazol]
CD169 (AU) [1, 6]: 99.4 ± 27.7 AU

C[C@H]1C[C@H]2[C@@H]3CCC4=CC(=O)C=C[C@]4(C)[C@@]3(F)[C@@H](O)C[C@]2(C)[C@@]1(O)C(=O)CCl [Clobetasol]
CD169 (AU) [1, 6]: 98.5 ± 5.5 AU

Nc1nc2c(ncn2[C@@H]2O[C@@H]3COP(=O)(O)O[C@H]4[C@@H](O)[C@H](n5cnc6c(=O)[nH]c(N)nc65)O[C@@H]4COP(=O)(O)O[C@H]3[C@H]2O)c(=O)[nH]1 [Cyclic-di-GMP]
CD169 (AU) [1, 5]: 142.9 ± 9.7** AU

CCCCCCCC(=O)c1c(O)cc(O)cc1CC(=O)OCC [Cytosporone B]
CD169 (AU) [1, 6]: 120.3 ± 6.4** AU

O=C(CO)[C@@H](O)[C@@H](O)[C@H](O)[C@H](O)CO [D-mannoheptulose]
CD169 (AU) ([1]; immX3 peptide 330 nM plus helper at 50 uM): 140.8 ± 12.4** AU

OC[C@H]1O[C@H](OC[C@H]2O[C@H](O[C@]3(CO)O[C@H](CO)[C@@H](O)[C@@H]3O)[C@H](O)[C@@H](O)[C@@H]2O)[C@H](O)[C@@H](O)[C@H]1O [D-raffinose]
CD169 (AU) [1, 7]: 111.9 ± 4.0** AU

CN1C[C@H](C(=O)N[C@]2(C)O[C@@]3(O)[C@@H]4CCCN4C(=O)[C@H](Cc4ccccc4)N3C2=O)C[C@@H]2c3cccc4[nH]cc(c34)C[C@H]21 [Dihydroergotamine]
CD169 (AU) [1, 6]: 170.3 ± 20.7** AU

O=C(O)CC1CC(c2ccccc2)=NO1 (stereo not shown) [GIT27]
CD169 (AU) [1, 6]: 166.5 ± 34.1** AU

CN1c2ccc([N+](=O)[O-])cc2N=C(c2ccc(C(=O)O)cc2)c2cc3c(cc21)C(C)(C)CCC3(C)C [HX531]
CD169 (AU) [1, 6]: 90.4 ± 6.2 AU

CN1c2ccccc2N=C(c2ccc(C(=O)O)cc2)c2cc3c(cc21)C(C)(C)CCC3(C)C [HX600]
CD169 (AU) [1, 6]: 110.5 ± 19.0 AU

O=C(O)/C=C/C(=O)O [L-fumarate]
CD169 (AU) [1, 7]: 101.5 ± 7.3 AU

C[C@H](O)C(=O)O [L-lactate]
CD169 (AU) ([1]; immX3 peptide 330 nM plus helper at 300 uM): 121.1 ± 5.6** AU

Cc1cc2c(cc1C1(c3ccc(C(=O)O)cn3)CC1)C(C)(C)CCC2(C)C [LG100268]
CD169 (AU) [1, 6]: 76.8 ± 11.9** AU

O=C(NCc1ccco1)c1ccc2c(c1)N(Cc1c(F)cccc1Cl)C(=O)CS2 [Peptide G10, G10]
CD169 (AU) [1, 6]: 143.4 ± 17.8** AU

CC(=O)S[C@@H]1CC2=CC(=O)CC[C@]2(C)[C@H]2CC[C@@]3(C)[C@@H](CC[C@@]34CCC(=O)O4)[C@H]12 [Spironolactone]
CD169 (AU) [1, 6]: 120.1 ± 10.5** AU

CC(=O)/C=C1\C(=O)N(C)c2ccccc21 [Supercinnamaldehyde]
CD169 (AU) [1, 6]: 159.7 ± 16.6** AU

CSCC[C@H](NC(=O)[C@H](CO)NC(=O)[C@@H](NC(=O)[C@H](CCC(=O)O)NC(=O)[C@H](CS)NC(=O)[C@H](CCC(N)=O)NC(=O)[C@H](CCCNC(=N)N)NC(=O)[C@H](CO)NC(=O)[C@H](Cc1c[nH]cn1)NC(=O)[C@H](Cc1ccc(O)cc1)NC(=O)[C@H](Cc1ccccc1)NC(=O)CNC(=O)[C@H](CC(N)=O)NC(=O)[C@@H](N)CCCCN)[C@@H](C)O)C(=O)N[C@@H](CC(=O)O)C(=O)NCC(=O)N[C@@H](CCC(=O)O)C(=O)N[C@@H](C)C(=O)NCC(=O)N[C@@H](CC(C)C)C(=O)N[C@@H](CS)C(=O)N[C@@H](Cc1c[nH]c2ccccc12)C(=O)O [imm1] (H-KNGFYHSRQCETSMDGEAGLCW-OH)
Binding to Phosphatidylinositol [2]: —
Binding to PtdIns(3,4,5)P [PIP3] [2]: —
Binding to PtdIns(4)P [PIP1] [2]: —
Binding to PtdIns(4,5)P [PIP2] [2]: —
CD169+ (AU) [3]: 3.1 ± 2.2 AU

CC(C)[C@H](NC(=O)[C@H](Cc1ccccc1)NC(=O)[C@H](Cc1c[nH]c2ccccc12)NC(=O)[C@H](CS)NC(=O)[C@H](Cc1ccccc1)NC(=O)CNC(=O)[C@H](CCCNC(=N)N)NC(=O)[C@H](CCCCN)NC(=O)[C@H](CCCNC(=N)N)NC(=O)CNC(=O)[C@H](CCCCN)NC(=O)[C@H](CO)NC(=O)[C@@H]1CCCN1C(=O)[C@H](CCCNC(=N)N)NC(=O)[C@H](CS)NC(=O)[C@H](CCC(N)=O)NC(=O)[C@H](CCCCN)NC(=O)[C@H](CCCCN)NC(=O)[C@H](CCCCN)NC(=O)[C@H](Cc1ccc(O)cc1)NC(=O)[C@H](Cc1ccccc1)NC(=O)CNC(=O)[C@H](CCCCN)NC(=O)[C@@H](N)CCCCN)C(=O)N[C@@H](CO)C(=O)O [immX3FVS] (H-KKGFYKKKQCRPSKGRKRGFCWFVS-OH)
CD169+ (AU) [3]: 109.4 ± 4.5 AU
CCL22 [3]: 251.3 ± 5.8 pg/mL

GM-CSF
CD169 (AU) [1, 8]: 147.0 ± 15.3** AU

HP-B-cyclodextrin
CD169 (AU) [1, 7]: 121.1 ± 4.6** AU

Heparin
CD169 (AU) [1, 9]: 34.1 ± 2.9** AU

Holotransferrin [Holotransferrin (Tf)]
CD169 (AU) ([1]; immX3 peptide 330 nM plus helper at 0.8 ug/ml): 126.8 ± 9.3** AU

Hyaluronan [Hyaluronan(HMW-HA)]
CD169 (AU) ([1]; immX3 peptide 330 nM plus helper at 0.6 ug/ml): 110.5 ± 10.2 AU

KKGFYKKKQCRPSKGRKRGFCW(dA)VD (KKGFYKKKQCRPSKGRKRGFCW[dA]VD; cysteine pairing not given here) [immX3dAVD]
CD169+ (AU) [3]: 104.3 ± 6.1 AU
CCL22 [3]: 247.3 ± 16.1 pg/mL

Leptin
CD169 (AU) [1, 9]: 103.3 ± 11.6 AU

NGLLKIKKGFYKKKQCRPSKGRKRGFCWAVD [immX3K4e + 1]
CD169+ (AU) [3]: 128.4 ± 1.4 AU
Creatine Kinase Act. [4]: 178.4 ± 7.6** units per milliliter

B1: CSF1 (protein, UniProt P09603 33-554, looked up)
Macrophage colony-stimulating …: EEVSEYCSHMIGSGHLQSLQRLIDSQMETSCQITFEFVDQEQLKDPVCYLKKAFLLVQDIMEDTMRFRDNTPNAIAIVQLQELSLRLKSCFTKDYEEHDKACVRTFYETPLQLLEKVKNVFNETKNLLDKDWNIFSKNCNNSFAECSSQDVVTKPDCNCLYPKAIPSSDPASVSPHQPLAPSMAPVAGLTWEDSEGTEGSSLLPGEQPLHTVDPGSAKQRPPRSTCQSFEPPETPVVKDSTIGGSPQPRPSVGAFNPGMEDILDSAMGTNWVPEEASGEASEIPVPQGTELSPSRPGGGSMQTEPARPSNFLSASSPLPASAKGQQPADVTGTALPRVGPVRPTGQDWNHTPQKTDHPSALLRDPPEPGSPRISSLRPQGLSNPSTLSAQPQLSRSHSSGSVLPLGELEGRRSTRDRRSPAEPEGGPASEGAARPLPRFNSVPLTDTGHERQSEGSFSPQLQESVFHLLVPSVILVLLAVGGLLFYRWRRRSHQEPQRADSPLEQPEGSPLTQDDRQVELPV
notes: Growth factor class
CD169 (AU) [1, 8]: 108.0 ± 32.3 AU
